Experimental data: patent publication US10040781B2, “Tank-binding kinase inhibitor compounds” (Gilead Sciences, Inc., priority 2014, dated 2018)
pIC50: −log10 of the molar value. Where two headings read alike, the source gives them in different places.

Key:
[1] = target: IKKε (Homo sapiens (Human), UniProt Q14164); assay: IKKε TR-FRET enzymatic assay; format: biochemical
[2] = target: TBK1 (Homo sapiens (Human), UniProt Q9UHD2); assay: TBK1 TR-FRET enzymatic assay;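 further: phosphorylation of a biotinylated Ser/Thr peptide by purified full-length recombinant TBK1, read by TR-FRET after 240 min at 25 °C, IC50 is the geometric mean of at least four runs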
TBK1, sequence (Q9UHD2 whole entry): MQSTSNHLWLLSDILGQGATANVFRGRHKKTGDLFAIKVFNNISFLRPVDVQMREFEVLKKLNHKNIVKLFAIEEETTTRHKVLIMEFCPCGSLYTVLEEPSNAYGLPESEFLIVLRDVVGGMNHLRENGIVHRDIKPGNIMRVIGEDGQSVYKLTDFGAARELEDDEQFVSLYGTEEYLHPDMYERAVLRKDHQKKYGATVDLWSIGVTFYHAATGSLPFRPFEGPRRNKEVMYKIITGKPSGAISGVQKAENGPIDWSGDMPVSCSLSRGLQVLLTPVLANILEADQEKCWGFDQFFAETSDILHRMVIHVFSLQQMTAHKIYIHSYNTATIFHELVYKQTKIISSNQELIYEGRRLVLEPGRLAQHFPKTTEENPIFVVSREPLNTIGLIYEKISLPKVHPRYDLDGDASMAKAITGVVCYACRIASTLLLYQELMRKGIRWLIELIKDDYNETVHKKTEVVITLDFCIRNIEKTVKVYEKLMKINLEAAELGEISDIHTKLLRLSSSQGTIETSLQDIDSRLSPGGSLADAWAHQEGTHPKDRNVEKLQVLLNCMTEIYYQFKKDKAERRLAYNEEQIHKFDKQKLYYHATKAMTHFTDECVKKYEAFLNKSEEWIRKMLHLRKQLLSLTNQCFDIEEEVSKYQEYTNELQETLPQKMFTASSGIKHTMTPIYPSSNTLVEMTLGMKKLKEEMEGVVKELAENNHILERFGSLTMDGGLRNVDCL

IKKε, sequence (Q14164 whole entry): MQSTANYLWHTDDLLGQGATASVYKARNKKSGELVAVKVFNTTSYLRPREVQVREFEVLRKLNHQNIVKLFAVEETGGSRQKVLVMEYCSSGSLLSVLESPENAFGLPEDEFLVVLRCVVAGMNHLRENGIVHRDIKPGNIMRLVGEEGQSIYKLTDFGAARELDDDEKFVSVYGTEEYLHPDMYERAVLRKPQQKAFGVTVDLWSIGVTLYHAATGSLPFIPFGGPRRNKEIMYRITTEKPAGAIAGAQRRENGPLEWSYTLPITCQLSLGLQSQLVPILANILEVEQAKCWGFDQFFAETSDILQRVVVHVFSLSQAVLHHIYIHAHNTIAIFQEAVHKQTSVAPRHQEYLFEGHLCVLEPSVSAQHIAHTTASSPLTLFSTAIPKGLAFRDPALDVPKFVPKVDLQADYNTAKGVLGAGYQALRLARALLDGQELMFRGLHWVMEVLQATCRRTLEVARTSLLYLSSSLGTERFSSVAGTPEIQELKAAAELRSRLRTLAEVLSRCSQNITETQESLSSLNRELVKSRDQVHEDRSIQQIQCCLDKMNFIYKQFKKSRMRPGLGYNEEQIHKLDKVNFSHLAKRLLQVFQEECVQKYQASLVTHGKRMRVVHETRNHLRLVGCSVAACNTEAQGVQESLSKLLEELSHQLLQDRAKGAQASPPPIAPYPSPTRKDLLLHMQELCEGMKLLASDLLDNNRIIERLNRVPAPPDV

| Compound | pIC50 ([1]; read-out: IKKe IC50) | pIC50 [2] | pIC50 ([1]; IKKe IC50) | pIC50 ([2]; TBK1 IC50) |
| --- | --- | --- | --- | --- |
| N#Cc1cc(-c2ncnc(Nc3ccc(N4CCN(C5COC5)CC4)cc3)n2)ccc1O[C@@H]1CCN(C(=O)CO)C[C@@H]1F (racemic) [Example 218, 2-((cis-3-fluoro-1-(2-hydroxyacetyl)piperidin-4-yl)oxy)-5-(4-((4-(4-(oxetan-3-yl)piperazin-1-yl)phenyl)amino)-1,3,5-triazin-2-yl)benzonitrile] | 8.52 | – | – | – |
| N#Cc1cc(-c2ncnc(Nc3ccc(N4CCN(C5COC5)CC4)cc3)n2)ccc1OC1CC[S+]([O-])CC1 (single isomer, unassigned) [Example 25, 5-(4-((4-(4-(oxetan-3-yl)piperazin-1-yl)phenyl)amino)-1,3,5-triazin-2-yl)-2-((1-oxidotetrahydro-2H-thiopyran-4-yl)oxy)benzonitrile] | – | – | 7.14 | 7.68 |
| N#Cc1cc(-c2ncnc(Nc3ccc(N4CCN(C5COC5)CC4)cc3)n2)ccc1OC1CC[S+]([O-])CC1 (single isomer, unassigned) [Example 26, 5-(4-((4-(4-(oxetan-3-yl)piperazin-1-yl)phenyl)amino)-1,3,5-triazin-2-yl)-2-((1-oxidotetrahydro-2H-thiopyran-4-yl)oxy)benzonitrile] | – | – | 7.64 | 8.22 |
| COC(=O)N1CC[C@@H](Oc2ccc(-c3ncnc(Nc4ccc(N5CCN(C6COC6)CC5)cc4)n3)cc2C#N)C1 [Example 2, (R)-methyl 3-(2-cyano-4-(4-((4-(4-(oxetan-3-yl)piperazin-1-yl)phenyl)amino)-1,3,5-triazin-2-yl)phenoxy)pyrrolidine-1-carboxylate] | 6.83 | 7.43 | – | – |
| CNC(=O)c1ccc(Nc2ncnc(-c3ccc(OC4CCOCC4)c(C#N)c3)n2)cc1 [Example 14, 4-((4-(3-cyano-4-((tetrahydro-2H-pyran-4-yl)oxy)phenyl)-1,3,5-triazin-2-yl)amino)-N-methylbenzamide] | 7.68 | 8.40 | – | – |
| N#Cc1cc(-c2ncnc(Nc3ccc(N4CCN(C5COC5)CC4)cc3)n2)ccc1O[C@@H]1CCOC1 [Example 29, (R)-5-(4-((4-(4-(oxetan-3-yl)piperazin-1-yl)phenyl)amino)-1,3,5-triazin-2-yl)-2-((tetrahydrofuran-3-yl)oxy)benzonitrile] | 7.49 | 8.30 | – | – |
| N#Cc1cc(-c2ncnc(Nc3ccc(N4CCOCC4)cc3)n2)ccc1NC(=O)[C@@H]1CCCN1 [Example 37, (S)—N-(2-cyano-4-(4-((4-morpholinophenyl)amino)-1,3,5-triazin-2-yl)phenyl)pyrrolidine-2-carboxamide] | 6.52 | 6.69 | – | – |
| N#Cc1cc(-c2ncnc(Nc3ccc(N4CCO[C@@H](CO)C4)cc3)n2)ccc1OC1CCOCC1 [Example 107, (R)-5-(4-((4-(2-(hydroxymethyl)morpholino)phenyl)amino)-1,3,5-triazin-2-yl)-2-((tetrahydro-2H-pyran-4-yl)oxy)benzonitrile] | 8.52 | – | – | – |

Second part, led by results:

| pIC50 ([1]; read-out: IKKe IC50) | pIC50 [2] | Compound | pIC50 ([1]; IKKe IC50) | pIC50 ([2]; TBK1 IC50) |
| --- | --- | --- | --- | --- |
| 7.64 | – | N#Cc1cc(-c2ncnc(Nc3ccc(N4CCN(C5COC5)CC4)cc3)n2)ccc1O[C@@H]1CCN(C(=O)CO)C[C@@H]1F [Example 224, 2-(((3S,4R)-3-fluoro-1-(2-hydroxyacetyl)piperidin-4-yl)oxy)-5-(4-((4-(4-(oxetan-3-yl)piperazin-1-yl)phenyl)amino)-1,3,5-triazin-2-yl)benzonitrile] | – | – |
| 8.30 | – | N#Cc1cc(-c2ncnc(Nc3ccc(N4CCN(C5COC5)CC4)cc3)n2)ccc1O[C@@H]1CCN(C(=O)CO)C[C@H]1F [Example 235, 2-(((3R,4R)-3-fluoro-1-(2-hydroxyacetyl)piperidin-4-yl)oxy)-5-(4-((4-(4-(oxetan-3-yl)piperazin-1-yl)phenyl)amino)-1,3,5-triazin-2-yl)benzonitrile] | – | – |
| 7.37 | – | N#Cc1cc(-c2ncnc(Nc3ccc(C4CCN(C5COC5)CC4)cc3)n2)ccc1OC1CCS(=O)(=O)CC1 [Example 270, 2-((1,1-dioxidotetrahydro-2H-thiopyran-4-yl)oxy)-5-(4-((4-(1-(oxetan-3-yl)piperidin-4-yl)phenyl)amino)-1,3,5-triazin-2-yl)benzonitrile] | – | – |
